Patent US11299478B2, “2-cyanopyrimidin-4-yl carbamate or urea derivative or salt thereof, and pharmaceutical composition including same” (HANLIM PHARMACEUTICAL CO., LTD., priority 2018, dated 2022)

What was measured:
Assay type in all cases: biochemical
cathepsin K = target: T1, cathepsin K (Homo sapiens, UniProt P43235); experiment: Inhibitory activity assay against cathepsin K (enzyme assay); conditions: Z-Phe-Arg-AMC 10 μM, enzyme 1 nM, pH 5.5, 30 minutes
T1 sequence (P43235 115-329): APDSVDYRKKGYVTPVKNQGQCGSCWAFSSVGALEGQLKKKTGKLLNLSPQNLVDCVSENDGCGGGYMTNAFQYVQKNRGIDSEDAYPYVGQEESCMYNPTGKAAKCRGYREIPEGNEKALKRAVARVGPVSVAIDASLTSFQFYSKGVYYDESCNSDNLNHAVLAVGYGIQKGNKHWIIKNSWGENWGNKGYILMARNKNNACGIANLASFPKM
Description: In order to measure the enzyme activity of cathepsin K, a buffer solution (pH 5.5) consisting of 50 mM 2-(N-morpholino)ethanesulfonic acid (MES), 2 mM dithiothreitol (DTT), 2.5 mM ethylenediaminetetraacetic acid (EDTA), 0.01% Triton X-100, and 10% dimethyl sulfoxide (DMSO) was prepared. The substrate, the test material, and the enzyme were mixed in the buffer solution in a predetermined concentration. The Z-Phe-Arg-AMC substrate was used in the final concentration of 10 μM. The test material was used in the final concentrations of 10.0 μM, 3.33 μM, 1.11 μM, 0.370 μM, 0.123 μM, 0.0412 μM, 0.0137 μM, 0.00457 μM, 0.00152 μM, and 0.000508 μM, respectively. The cathepsin K enzyme was used in the final concentration of 1 nM. The final volume of the enzyme reaction solution was 10 μL. After reacting the mixture of substrate, test material, and enzyme for 30 minutes, the enzyme activity was measured with the Synergy Neo (Biotek) microplate reader at an absorption wavelength of 355 nm and an emission wavelength of 460 nm. IC50 values were determined using 4-parameter logistic curve fit program of GraphPad Prism.

cathepsin B = cathepsin B (Homo sapiens, UniProt P07858); experiment: Inhibitory activity assay against cathepsin B (enzyme assay); conditions: Z-Arg-Arg-AMC 40 μM, enzyme 1 nM, pH 6.0, 90 minutes
Description: In order to measure the enzyme activity of cathepsin B, a buffer solution (pH 6.0) consisting of 50 mM MES, 5 mM DTT, 2.5 mM EDTA, 0.005% Polysorbate 20, and 10% DMSO was prepared. The substrate, the test material, and the enzyme were mixed in the buffer solution in a predetermined concentration. The Z-Arg-Arg-AMC substrate was used in the final concentration of 40 μM. The test material was used in the final concentrations of 10.0 μM, 3.33 μM, 1.11 μM, 0.370 μM, 0.123 μM, 0.0412 μM, 0.0137 μM, 0.00457 μM, 0.00152 μM, and 0.000508 μM, respectively. The cathepsin B enzyme was used in the final concentration of 1 nM. The final volume of the enzyme reaction solution was 10 μL. After reacting the mixture of substrate, test material, and enzyme for 90 minutes, the enzyme activity was measured with the EnVision (Perkin Elmer) microplate reader at an absorption wavelength of 340 nm and an emission wavelength of 460 nm. IC50 values were determined using 4-parameter logistic curve fit program of GraphPad Prism.

cathepsin L = cathepsin L (Homo sapiens, UniProt P07711); experiment: Inhibitory activity assay against cathepsin L (enzyme assay); conditions: Z-Phe-Arg-AMC 2 μM, enzyme 3 nM, pH 5.5, 30 minutes
cathepsin L, sequence (P07711 114-333, species assumed): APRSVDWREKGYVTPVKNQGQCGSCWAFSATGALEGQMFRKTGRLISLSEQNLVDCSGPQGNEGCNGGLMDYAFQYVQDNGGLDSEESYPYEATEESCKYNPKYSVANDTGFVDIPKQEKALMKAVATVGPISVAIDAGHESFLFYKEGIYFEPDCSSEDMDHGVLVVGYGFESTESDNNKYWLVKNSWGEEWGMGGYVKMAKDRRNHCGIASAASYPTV
Description: In order to measure the enzyme activity of cathepsin L, a buffer solution (pH 5.5) consisting of 50 mM MES, 2.5 mM DTT, 2.5 mM EDTA, 0.005% Polysorbate 20, and 10% DMSO was prepared. The substrate, the test material, and the enzyme were mixed in the buffer solution in a predetermined concentration. The Z-Phe-Arg-AMC substrate was used in the final concentration of 2 μM. The test material was used in the final concentrations of 10.0 μM, 3.33 μM, 1.11 μM, 0.370 μM, 0.123 μM, 0.0412 μM, 0.0137 μM, 0.00457 μM, 0.00152 μM, and 0.000508 μM, respectively. The cathepsin L enzyme was used in the final concentration of 3 nM. The final volume of the enzyme reaction solution was 10 μL. After reacting the mixture of substrate, test material, and enzyme for 30 minutes, the enzyme activity was measured with the EnVision (Perkin Elmer) microplate reader at an absorption wavelength of 340 nm and an emission wavelength of 460 nm. IC50 values were determined using 4-parameter logistic curve fit program of GraphPad Prism.

cathepsin S = cathepsin S (Homo sapiens, UniProt P25774); experiment: Inhibitory activity assay against cathepsin S (enzyme assay); conditions: Z-Phe-Arg-AMC 70 μM, enzyme 3 nM, pH 6.5, 45 minutes
cathepsin S, sequence (P25774 115-331, species assumed): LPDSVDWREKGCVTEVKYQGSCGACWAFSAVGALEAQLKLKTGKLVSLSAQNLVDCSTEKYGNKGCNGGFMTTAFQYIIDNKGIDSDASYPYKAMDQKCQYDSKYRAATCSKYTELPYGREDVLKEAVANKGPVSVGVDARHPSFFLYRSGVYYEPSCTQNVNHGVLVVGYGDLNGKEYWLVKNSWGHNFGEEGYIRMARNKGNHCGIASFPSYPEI
Description: In order to measure the enzyme activity of cathepsin S, a buffer solution (pH 6.5) consisting of 50 mM MES, 2.5 mM DTT, 1.0 mM EDTA, 0.001% bovine serum albumin (BSA), and 10% DMSO was prepared. The substrate, the test material, and the enzyme were mixed in the buffer solution in a predetermined concentration. The Z-Phe-Arg-AMC substrate was used in the final concentration of 70 μM. The test material was used in the final concentrations of 10.0 μM, 3.33 μM, 1.11 μM, 0.370 μM, 0.123 μM, 0.0412 μM, 0.0137 μM, 0.00457 μM, 0.00152 μM, and 0.000508 μM, respectively. The cathepsin S enzyme was used in the final concentration of 3 nM. The final volume of the enzyme reaction solution was 10 μL.
After reacting the mixture of substrate, test material, and enzyme for 45 minutes, the enzyme activity was measured with the EnVision (Perkin Elmer) microplate reader at an absorption wavelength of 340 nm and an emission wavelength of 460 nm. IC50 values were determined using 4-parameter logistic curve fit program of GraphPad Prism.

IC50 (cathepsin K)	IC50 (cathepsin B)	IC50 (cathepsin L)	IC50 (cathepsin S)	Structure (SMILES)
492 nM	> 10000 nM	> 10000 nM	> 10000 nM	N#Cc1nccc(C2(NC(=O)OCc3cccc(-c4ccc(F)nc4)c3)CCCC2)n1 [Example 35, 3-(6-fluoropyridin-3-yl)benzyl (1-(2-cyanopyrimidin-4-yl)cyclopentyl)carbamate]
44.3 nM	> 10000 nM	3410 nM	1680 nM	Cc1ccc(C)c(NC(=O)NC2(c3ccnc(C#N)n3)CCC(C)(C)CC2)c1 [Example 84, 1-(1-(2-cyanopyrimidin-4-yl)-4,4-dimethylcyclohexyl)-3-(2,5-dimethylphenyl)urea]
0.6 nM	1890 nM	4090 nM	> 10000 nM	CN(C)CCNC(=O)c1ccc(-c2ccc(NC(=O)NC3(c4ccnc(C#N)n4)CCCCC3)cc2)cc1 [Example 159, 4′-(3-(1-(2-cyanopyrimidin-4-yl)cyclohexyl)ureido)-N-(2-(dimethylamino)ethyl)-[1,1′-biphenyl]-4-carboxamide]
205 nM	> 10000 nM	> 10000 nM	6140 nM	N#Cc1nccc(C2(NC(=O)Nc3ccc(-c4ccc(S(=O)(=O)C(F)(F)F)cc4)c(C(F)(F)F)c3)CCCCC2)n1 [Example 177, 1-(1-(2-cyanopyrimidin-4-yl)cyclohexyl)-3-(2-(trifluoromethyl)-4′-((trifluoromethyl)sulfonyl)-[1,1′-biphenyl]-4-yl)urea]
21.5 nM	> 10000 nM	6570 nM	> 10000 nM	N#Cc1nccc(C2(NC(=O)Nc3ccc(N4CCNCC4)cc3)CCCCC2)n1 [Example 140, 1-(1-(2-cyanopyrimidin-4-yl)cyclohexyl)-3-(4-(piperazin-1-yl)phenyl)urea]
17 nM	> 10000 nM	> 10000 nM	> 10000 nM	N#Cc1nccc(C2(NC(=O)Nc3cc(C(F)(F)F)ccc3F)CCCC2)n1 [Example 83, 1-(1-(2-cyanopyrimidin-4-yl)cyclopentyl)-3-(2-fluoro-5-(trifluoromethyl)phenyl)urea]
5.8 nM	> 10000 nM	4200 nM	≥ 10000 nM	CN1CCN(c2ccc(NC(=O)NC3(c4ccnc(C#N)n4)CCCCC3)cc2)CC1 [Example 138, 1-(1-(2-cyanopyrimidin-4-yl)cyclohexyl)-3-(4-(4-methylpiperazin-1-yl)phenyl)urea]
15.9 nM	> 10000 nM	> 10000 nM	3930 nM	N#Cc1nccc(C2(NC(=O)Nc3ccc(-c4ccc(CCC(=O)O)cc4)cc3)CCCCC2)n1 [Example 131, 3-(4′-(3-(1-(2-cyanopyrimidin-4-yl)cyclohexyl)ureido)-[1,1′-biphenyl]-4-yl)propanoic acid]
35.8 nM	> 10000 nM	8780 nM	> 10000 nM	N#Cc1nccc(C2(NC(=O)OCc3ccccc3Cl)CCCCC2)n1 [Example 28, 2-chlorobenzyl (1-(2-cyanopyrimidin-4-yl)cyclohexyl)carbamate]
2.1 nM	> 10000 nM	> 10000 nM	> 10000 nM	CS(=O)(=O)c1ccc(-c2ccc(NC(=O)NC3(c4ccnc(C#N)n4)CCCCC3)cc2)cc1 [Example 116, 1-(1-(2-cyanopyrimidin-4-yl)cyclohexyl)-3-(4′-(methylsulfonyl)-[1,1′-biphenyl]-4-yl)urea]
0.3 nM	> 10000 nM	> 10000 nM	> 10000 nM	N#Cc1nccc(C2(NC(=O)Nc3ccc(-c4ccc(C5CCN(C6CC6)CC5)cc4)c(F)c3)CCCCC2)n1 [Example 168, 1-(1-(2-cyanopyrimidin-4-yl)cyclohexyl)-3-(4′-(1-cyclopropylpiperidin-4-yl)-2-fluoro-[1,1′-biphenyl]-4-yl)urea]
4.1 nM	> 10000 nM	> 10000 nM	> 10000 nM	N#Cc1nccc(C2(NC(=O)Nc3ccc(-c4ccc(N5CCOCC5)cc4)cc3)CCCCC2)n1 [Example 117, 1-(1-(2-cyanopyrimidin-4-yl)cyclohexyl)-3-(4′-morpholino-[1,1′-biphenyl]-4-yl)urea]
21.7 nM	> 10000 nM	> 10000 nM	> 10000 nM	N#Cc1nccc(C2(NC(=O)Nc3ccc(Nc4ccccc4)cc3)CCCCC2)n1 [Example 101, 1-(1-(2-cyanopyrimidin-4-yl)cyclohexyl)-3-(4-(phenylamino)phenyl)urea]
6.9 nM	> 10000 nM	> 10000 nM	> 10000 nM	N#Cc1nccc(C2(NC(=O)Nc3ccc(-c4ccccc4F)cc3)CCCCC2)n1 [Example 124, 1-(1-(2-cyanopyrimidin-4-yl)cyclohexyl)-3-(2′-fluoro-[1,1′-biphenyl]-4-yl)urea]
54.5 nM	7610 nM	> 10000 nM	> 10000 nM	N#Cc1nccc(C2(NC(=O)Nc3ccc4c(c3)CCC4)CCCC2)n1 [Example 82, 1-(1-(2-cyanopyrimidin-4-yl)cyclopentyl)-3-(2,3-dihydro-1H-inden-5-yl)urea]
64.6 nM	> 10000 nM	> 10000 nM	> 10000 nM	N#Cc1nccc(C2(NC(=O)Nc3cc(F)ccc3C(F)(F)F)CCCC2)n1 [Example 67, 1-(1-(2-cyanopyrimidin-4-yl)cyclopentyl)-3-(5-fluoro-2-(trifluoromethyl)phenyl)urea]
0.1 nM	1840 nM	8810 nM	> 10000 nM	CCN1CCN(c2ccc(-c3ccc(NC(=O)NC4(c5ccnc(C#N)n5)CCCCC4)cc3)cc2)CC1 [Example 160, 1-(1-(2-cyanopyrimidin-4-yl)cyclohexyl)-3-(4′-(4-ethylpiperazin-1-yl)-[1,1′-biphenyl]-4-yl)urea]
25.1 nM	> 10000 nM	> 10000 nM	5750 nM	N#Cc1nccc(C2(NC(=O)Nc3ccc(-c4ccc(C(F)(F)F)nc4)cc3)CCCCC2)n1 [Example 126, 1-(1-(2-cyanopyrimidin-4-yl)cyclohexyl)-3-(4-(6-(trifluoromethyl)pyridin-3-yl)phenyl)urea]
3.2 nM	> 10000 nM	1100 nM	> 10000 nM	Cc1ccc(C(F)(F)F)cc1NC(=O)NC1(c2ccnc(C#N)n2)CCCCC1 [Example 99, 1-(1-(2-cyanopyrimidin-4-yl)cyclohexyl)-3-(2-methyl-5-(trifluoromethyl)phenyl)urea]
